Data set [1] is described as follows: Hydrogel formation with dilute sodium hydroxide, Crystal Violet overlay. The settings on record: 8.3 mg/ml peptide, 16.7 mM NaOH, room temperature 5-10 min. The data set is classed as physicochemical. How it is done:
FIG. 2: Hydrogel formation of GL13 peptides. Hydrogels are overlaid with Crystal Violet solution. D=DGL13K; R=DGL13R; PEG-L=PEG-LGL13K; pro-D=PEG-pro-DGL13K; E4=PEG-E4-pro-DGL13K; L=LGL13K.
FIG. 8: Hydrogels were formed with 4.2 mg/ml peptide+sodium hydroxide at the concentrations shown. Hydrogels were overlaid with Crystal Violet. Two phases indicate the formation of a hydrogel; Phase mixing indicates the absence of hydrogel. The hydrogels formed at 6.7 mM NaOH were not stable overnight (not shown).
FIG. 9: Hydrogels were formed with 16.7 mM sodium hydroxide and peptides at the concentrations shown. D=DGL13K; L=LGL13K; R=DGL13R. Hydrogels were overlaid with Crystal Violet and imaged within 10 min. Two phases indicate the formation of a hydrogel; Phase mixing indicates the absence of hydrogel.
The antimicrobial peptide GL13K can form a hydrogel when the peptide is reacted with dilute sodium hydroxide. Hydrogels were formed by incubating 8.3 mg/ml peptide with 16.7 mM NaOH and incubating at room temperature for 5-10 min. Hydrogels were overlaid with Crystal Violet. Two phases indicate the formation of a hydrogel; Phase mixing indicates the absence of hydrogel.

Data set [2] is classed as physicochemical. As to the method: FIG. 1: Turbidity of peptide solutions at 630 nm. Peptides were suspended in 0.01% acetic acid (our standard peptide solvent), Phosphate-Buffered Saline (PBS), pH 7.4 or dH2O.
LGL13K and DGL13K are not soluble in physiological salt solution (PBS). […] In FIG. 1, solubility is measured as the absence of optical density (OD) due to turbidity at 630 nm.

Data set [3] has as its system Pseudomonas aeruginosa. It counts as cell-based. As to the method:
(§1) Standard broth dilution assays were performed to determine the Minimal Inhibitory Concentration (MIC) of each peptide against Pseudomonas aeruginosa (P.a.) or Staphylococcus aureus (S.a.) (Table 2).

Data set [4] deals with Staphylococcus aureus. The data set is classed as cell-based. How it is done: as §1
A short description of data set [5]: in vitro. It counts as cell-based. Particulars: human, human red blood cells. How it is done:
FIG. 7: The in vitro toxicity of soluble DGL13K and PEG-pro-DGL 13K was tested against human Red Blood Cells and hemolysis recorded (% lysis compared to dH2O).
The dose causing lysis of 50% (LD50) of human red blood cells (RBC) was determined and the therapeutic index (Tx Indx) was calculated as LD50/MIC.

Data set [6] has as its system P. aeruginosa. The data set is described as follows: Peptide hydrogels placed on P. aeruginosa plated on agar. It counts as cell-based, Pseudomonas aeruginosa. The settings on record: hydrogel on agar plate. How it is done:
FIG. 4: Peptide hydrogels on P. aeruginosa Ac.Ac.=0.01% acetic acid mixed with NaOH (buffer control).
(§2) To test antibacterial activity, S. aureus (FIG. 3) or P. aeruginosa (FIG. 4) were plated on agar and peptide hydrogels placed on top of the bacteria. The plates were incubated to allow a bacterial lawn to grow. […] The larger inhibition zone seen for DGL13R is consistent with a lack of hydrogel formation, which allowed the peptide solution to spread on the plate.

In data set [7] the test system is Galleria mellonella (waxmoth larvae). Particulars: in vivo. How it is done:
FIG. 6: Galleria mellonella (wax moth larvae) were injected with liquid or hydrogel forms of the listed peptide. Larval survival was monitored for 48 h.
Hydrogels are less toxic in vitro and in vivo than the unmodified peptide. To test toxicity in vivo, hydrogels of DGL13K, PEG-pro-DGL13K (PEG-DGL13K) or liquid PEG-DGL13K were injected into Galleria mellonella (waxmoth larvae) and survival monitored for 48 hrs (FIG. 6). […] Hydrogel of PEG-pro-DGL13K was less toxic than hydrogel of the unmodified DGL13K peptide.

The subject of data set [8] is mouse skin burn. The data set is described as follows: Mouse burn wound healing model. It counts as in vivo. The settings on record: seven days after the burn.
Data set [9] relates to S. aureus. The data set is described as follows: Peptide hydrogels placed on S. aureus plated on agar. It counts as cell-based, Staphylococcus aureus. Particulars: hydrogel on agar plate. How it is done:
FIG. 3. Peptide hydrogels on S. aureus.
as §2

Where a SMILES comes first, the peptide text is derived from it. [ ]: non-standard residue; d: D form. The star is where a group is joined. MeOCH2CH2OCH2CO = COCCOCC(=O)*; PEG = not defined here; PEG1 = NCCOCCC(=O)O

The text below walks through data of US12441773B2, “Peptides, hydrogel compositions and methods of use thereof” (Regents of the University of Minnesota, priority 2019, dated 2025).

In general, HC50 refers to the concentration that lyses half of the red blood cells. Low readings indicate stronger haemolysis, high ones weaker haemolysis.

`CC[C@@H](C)[C@@H](NC(=O)[C@@H](CCCNC(=N)N)NC(=O)CN)C(=O)N[C@@H](C(=O)N[C@H](CCCNC(=N)N)C(=O)N[C@H](CC(C)C)C(=O)N[C@H](CCCNC(=N)N)C(=O)N[C@H](C)C(=O)N[C@H](CO)C(=O)N[C@H](CC(C)C)C(=O)N[C@H](CCCNC(=N)N)C(=O)N[C@H](CC(C)C)C(=O)N[C@H](CC(C)C)C(N)=O)[C@H](C)CC` [DGL13R, NH2-Gly-d-Arg-d-Ile-d-Ile-d-Arg-d-Leu-d-Arg-d-Ala-d-Ser-d-Leu-d-Arg-d-Leu-d-Leu-CONH2] (H-G[dR][dI][dI][dR][dL][dR][dA][dS][dL][dR][dL][dL]-NH2): in data set [1], the Hydrogel formation entry is recorded as “did not form hydrogels”. Besides, the “Solubility in physiological salt solution (PBS)” value in [2] is on record as “increased solubility”. Moreover, in data set [3], the “Minimal Inhibitory Concentration P.a.” value was determined as 2.6 µg/mL. In addition, in data set [4], the “Minimal Inhibitory Concentration S.a.” value was in the range of 1.3 to 2.6 µg/mL. Further, in data set [5], the HC50 was 500 µg/mL. Also, the “Growth of P. aeruginosa lawn under peptide hydrogel” value in [6] is “effectively prevented the growth”.

As to `CC[C@@H](C)[C@@H](NC(=O)[C@@H](CCCCN)NC(=O)CNC(=O)CCOCCN)C(=O)N[C@@H](C(=O)N[C@H](CCCCN)C(=O)N[C@H](CC(C)C)C(=O)N[C@H](CCCCN)C(=O)N[C@H](C)C(=O)N[C@H](CO)C(=O)N[C@H](CC(C)C)C(=O)N[C@H](CCCCN)C(=O)N[C@H](CC(C)C)C(=O)N[C@H](CC(C)C)C(N)=O)[C@H](C)CC` [PEG-DGL13K, PEG-Gly-d-Lys-d-Ile-d-Ile-d-Lys-d-Leu-d-Lys-d-Ala-d-Ser-d-Leu-d-Lys-d-Leu-d-Leu-CONH2] (H-[PEG1]G[dK][dI][dI][dK][dL][dK][dA][dS][dL][dK][dL][dL]-NH2), in data set [2], the “Solubility in physiological salt solution (PBS)” value was “soluble in PBS”. The “Minimal Inhibitory Concentration P.a.” value in [3] was in the range of 5 to 10.4 µg/mL. For the same compound, the “Toxicity of hydrogel compared with hydrogel of unmodified DGL13K” value in [7] is “less toxic”.

With “PEG-d-Glu-d-Glu-d-Glu-d-Glu-d-Leu-Gly-Gly-d-Ala-Gly-d-Lys-d-Ile-d-Ile-d-Lys-d-Leu-d-Lys-d-Ala-d-Ser-d-Leu-d-Lys-d-Leu-d-Leu-CONH2 ({PEG}-[dE][dE][dE][dE][dL]GG[dA]G[dK][dI][dI][dK][dL][dK][dA][dS][dL][dK][dL][dL]-NH2; reading uncertain) [PEG-E4-pro-DGL13K]”, in data set [1], the Hydrogel formation entry is listed as “did not form hydrogels”.

As to `CC[C@@H](C)[C@@H](NC(=O)[C@@H](CCCCN)NC(=O)CN)C(=O)N[C@@H](C(=O)N[C@H](CCCCN)C(=O)N[C@H](CC(C)C)C(=O)N[C@H](CCCCN)C(=O)N[C@H](C)C(=O)N[C@H](CO)C(=O)N[C@H](CC(C)C)C(=O)N[C@H](CCCCN)C(=O)N[C@H](CC(C)C)C(=O)N[C@H](CC(C)C)C(N)=O)[C@H](C)CC` [DGL13K, NH2-Gly-d-Lys-d-Ile-d-Ile-d-Lys-d-Leu-d-Lys-d-Ala-d-Ser-d-Leu-d-Lys-d-Leu-d-Leu-CONH2] (H-G[dK][dI][dI][dK][dL][dK][dA][dS][dL][dK][dL][dL]-NH2), in [1], the Hydrogel formation entry is given as “formed hydrogels”. Moreover, the “Minimal Inhibitory Concentration P.a.” value in data set [3] turned out to be 5.2 µg/mL. Also, the “Minimal Inhibitory Concentration S.a.” value in data set [4] lay in the range of 1.3 to 2.6 µg/mL. Moreover, the 50% haemolytic concentration (HC50) in data set [5] was determined as 500 µg/mL. Besides, the “Improved healing compared to SSD-treated mice” value in data set [8] was 48%. Besides, the “Improved healing compared to the control mice” value in data set [8] (peptide in solution or hydrogel) is on record as 36%. The “Growth of P. aeruginosa lawn under peptide hydrogel” value in data set [6] is on record as “effectively prevented the growth”. Also, the “Growth of S. aureus lawn under peptide hydrogel” value in [9] is reported as “prevented the growth”.

For H-GKIIKLKASLKLL-NH2 [LGL13K], in data set [1], the Hydrogel formation result is reported as “formed hydrogels”. In data set [2], the “Solubility in physiological salt solution (PBS)” value is reported as “not soluble”. Further, the “Minimal Inhibitory Concentration P.a.” value in [3] is 10.4 µg/mL. The “Minimal Inhibitory Concentration S.a.” value in [4] was 20.8 µg/mL. Moreover, in data set [5], the HC50 stood at 188 µg/mL. Also, the “Growth of S. aureus lawn under peptide hydrogel” value in [9] is listed as “prevented the growth”.

Turning to `CC[C@@H](C)[C@@H](NC(=O)[C@@H](CCCCN)NC(=O)CNC(=O)[C@@H](C)NC(=O)CNC(=O)CNC(=O)[C@@H](CC(C)C)NC(=O)CCOCCN)C(=O)N[C@@H](C(=O)N[C@H](CCCCN)C(=O)N[C@H](CC(C)C)C(=O)N[C@H](CCCCN)C(=O)N[C@H](C)C(=O)N[C@H](CO)C(=O)N[C@H](CC(C)C)C(=O)N[C@H](CCCCN)C(=O)N[C@H](CC(C)C)C(=O)N[C@H](CC(C)C)C(N)=O)[C@H](C)CC` [PEG-pro-DGL13K, PEG-d-Leu-Gly-Gly-d-Ala-Gly-d-Lys-d-Ile-d-Ile-d-Lys-d-Leu-d-Lys-d-Ala-d-Ser-d-Leu-d-Lys-d-Leu-d-Leu-CONH2] (H-[PEG1][dL]GG[dA]G[dK][dI][dI][dK][dL][dK][dA][dS][dL][dK][dL][dL]-NH2), in data set [3], the “Minimal Inhibitory Concentration P.a.” value turned out to be 10.4 µg/mL. The “Minimal Inhibitory Concentration S.a.” value in data set [4] was 5.2 µg/mL. In data set [5], this compound returned an HC50 of 1000 µg/mL. The “Toxicity of hydrogel compared with hydrogel of unmodified DGL13K” value in data set [7] is reported as “less toxic”.

On to `CC[C@H](C)[C@H](NC(=O)[C@H](CCCCN)NC(=O)CNC(=O)COCCOC)C(=O)N[C@H](C(=O)N[C@@H](CCCCN)C(=O)N[C@@H](CC(C)C)C(=O)N[C@@H](CCCCN)C(=O)N[C@@H](C)C(=O)N[C@@H](CO)C(=O)N[C@@H](CC(C)C)C(=O)N[C@@H](CCCCN)C(=O)N[C@@H](CC(C)C)C(=O)N[C@@H](CC(C)C)C(N)=O)[C@@H](C)CC` [PEG-LGL13K] (MeOCH2CH2OCH2CO-GKIIKLKASLKLL-NH2; N-terminus assumed), for which the Hydrogel formation result in data set [1] is given as “formed hydrogels”. Besides, the “Minimal Inhibitory Concentration P.a.” value in data set [3] was found to be 20.8 µg/mL. Also, in data set [4], the “Minimal Inhibitory Concentration S.a.” value stood at 83 µg/mL.

As for polymyxin B [reference compound], in data set [1], the Hydrogel formation entry is on record as “does not form hydrogel”.
